In patent US20190183939A1, “CELL THERAPY USING MIDBRAIN-TYPE NEURAL STEM CELLS TREATED WITH VITAMIN C” (INDUSTRY-UNIVERSITY COOPERATION FOUNDATION HANYANG …, priority 2017, published 2019):

Experiments:
[1] = system: global 5hmC/5mC and H3K27m3/H3K9m3 levels in VM-NSCs; assay: Global epigenetic code determination (dot blot, western blot, immunocytochemistry); format: cell-based, rat
Experimental: (§1) Cultured cells and cryosectioned brain slices were fixed with 4% paraformaldehyde (PFA), and blocked for 40 minutes in blocking solution (Blocking solution: 1% BSA+0.3% Triton X-100). For 5hmC and 5mC staining, the fixed cells were incubated with 2 N HCl for 20 minutes before the blocking reaction. The samples were incubated overnight at 4° C. in the blocking solution containing the primary antibodies listed in Supplemental Table 1. Secondary antibodies tagged with Alexa 488 (1:200, Invitrogen, Carlsbad, Calif.) and Cy3 (1:200, Jackson Immunoresearch Laboratories, West Grove, Pa.) were applied. Stained samples were mounted in Vectashield medium containing 40,6-diamidino-2-phenylindole (DAPI; Vector Laboratories, West Grove, Pa.) and analysed under an epifluorescence (Leica, Wetzlar, Germany) or confocal microscope (Leica TSP SP5).
DNA dot blot analysis for 5hmC/5mC was performed as described in the following reference. [He, X. B., Kim, M., Kim, S. Y., Yi, S. H., Rhee, Y. H., Kim, T., Lee, E. H., Park, C. H., Dixit, S., Harrison, F. E., et al. (2015). Vitamin C facilitates dopamine neuron differentiation in fetal midbrain through TET1- and JMJD3-dependent epigenetic control manner. Stem Cells 33, 1320-1332]. Briefly, genomic DNA was extracted and quantified. Genomic DNA (80 ng) was spotted on nitrocellulose membranes, air dried, and exposed in UV for 20 minutes. After blocking with 5% bovine serum albumin (BSA)/Tris-buffered saline-Tween 20 at room temperature for 2 hours, the membrane was incubated in anti-5hmC (Active Motif, Carlsbad, Calif.) and anti-5mC (Abcam, Cambridge, UK) antibodies at 4° C. overnight. Western-blots for determining global histone modification changes were performed as described in the following reference. [Rumbaugh, G., and Miller, C. A. (2011). Epigenetic changes in the brain: measuring global histone modifications. Methods Mol Biol 670, 263-274]. […] Positive bands were detected and captured by ChemiDoc (Bio-Rad, Hercules, Calif.), and the intensities of the bands were quantified using ImageJ software (http://imagej.nih.gov/ij).

JMJD3 = assay: Jmjd3 enzyme activity in nuclear fraction; format: biochemical, rat; conditions: VC 200 μM, 4 days of proliferation
Experimental: (§2) TET and JMJD3 activities were measured using Epigenase™ 5mC hydroxylase TET Activity/Inhibition Assay Kit and Epigenase™ JMJD3/UTX Demethylase Activity/Inhibition Assay Kit (Epigentek, Farmingdale, N.Y.), respectively. Briefly, cells from two 10 cm-dishes were harvested after 4 days of proliferation with or without VC (200 μM) treatment. Nuclear fractions were obtained from the cells using the EpiQuik nuclear extraction kit (Epigentek), and subjected to enzyme activity analyses.

TET = assay: Tet enzyme activity in nuclear fraction; format: biochemical, rat; conditions: VC 200 μM, 4 days of proliferation, D0
Experimental: as §2

VM-NSC cultures = assay: Marker expression by immunocytochemistry and real-time PCR; format: cell-based, rat
Experimental: as §1
Immunostained cells were counted in 10-20 random areas of each culture coverslip using an eyepiece grid at a magnification of 200×. Data are expressed as the mean±SEM of three to eight independent cultures. For every figure, statistical tests are justified as appropriate. Statistical comparisons were made using Student's t-test (unpaired) or one-way ANOVA followed by Tukey's post hoc analysis using SPSS® Statistics 21; IBM Inc. The relevant n, P-values, and statistical analysis methods are indicated in each figure legend.

For O=C1O[C@H]([C@@H](O)CO)C(O)=C1O [VC, L-ascorbic acid], the “global 5mC levels” value ([1]; D0) was “significant decrease”, the “global levels of H3K27m3 and H3K9m3” value ([1]; D0) was “reduced” and the “global 5hmC levels” value ([1]; D0, immunoblotting and immunocytochemical analyses) was “greatly increased”. The “Jmjd enzyme activity in nuclear fractions” value (JMJD3) was “increase”, the “Tet enzyme activity in nuclear fractions” value (TET) was “greatly enhanced” and the “percentage of cells expressing Foxa2 and Lmx1a” value (VM-NSC cultures; D0, VC during expansion) was “enhanced”. The “percentage of Nurr1+ cells” value (VM-NSC cultures; D2, VC during proliferating NSC stage) was “greater”, the “mRNA expression of GFAP and GFAP+ astrocyte yields” value (VM-NSC cultures; VC during proliferating VM-NSC stage) was “significantly enhanced” and the “mRNA expression levels of TPH2 and GAD67” value (VM-NSC cultures; VC during proliferation) was “no significant alteration”. The “expression of Nestin, Sox2 and Otx2 markers” value (VM-NSC cultures; proliferating VM-NSC cultures) was “not altered” and the “mRNA levels of Foxa2 and Lmx1a” value (VM-NSC cultures; real-time PCR, D0) was “enhanced”.
